Data on 21 compounds can be found in patent US12398111B2, “Triazine compounds and pharmaceutical use thereof” (Japan Tobacco Inc., priority 2014, dated 2025).

One experiment addresses T1, human mPGES-1 (Homo sapiens, UniProt O14684).
T1 construct: made in house; host or cells: FreeStyle CHO-S cells (Chinese hamster ovary), transient transfection with pcDNA3.1(+)/human mPGES-1; microsome fraction used
T1 sequence (O14684 1-152): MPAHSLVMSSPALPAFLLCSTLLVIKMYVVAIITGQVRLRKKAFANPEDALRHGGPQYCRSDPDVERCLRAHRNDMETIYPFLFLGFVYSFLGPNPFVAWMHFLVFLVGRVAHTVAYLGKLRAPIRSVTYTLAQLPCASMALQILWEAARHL
The experiment is described as follows: Evaluation of human mPGES-1 enzyme inhibitory activity (PGE2 measured by HTRF, microsome fraction of CHO-S cells expressing human mPGES-1). Format: biochemical. Particulars: IC50 value; microsome fraction of CHO-S cells expressing human mPGES-1, PGE2 by HTRF. In outline: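 Enzyme source: microsomes from CHO-S cells transfected with human mPGES-1 and cultured 48 hr, diluted to 5 μg/mL protein in reduced GSH (12.5 mmol/L KPB solution). Test articles were in 0.1 mol/L potassium phosphate pH 7.4, final DMSO 2% (v/v). PGE2 formed was quantified by HTRF.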
Background: Time-resolved FRET reads energy transfer from a long-lived donor to a nearby acceptor.

Experiment [1] concerns prostaglandins in guinea pig secondary aqueous humor. The experiment is described as follows: Effect on prostaglandin composition in guinea pig aqueous humor (instillation of 0.003% ophthalmic solution, LC/MS/MS). Format: in vivo, Hartley male guinea pig. The conditions noted are these: 24 hr after instillation of 0.003% ophthalmic solution. As for the experimental part:
A test article was dissolved in saline containing 0.5% polysorbate80 (Fluka) and 0.003% ophthalmic solution (pH 7.0-8.0) was prepared. The test article was administered to Hartley male guinea pig by instillation of 20 μL thereof to one eye by using a micropipette. After instillation, the lacrimal part was lightly fixed by gently pressing the lower eyelid for about 15 seconds. The opposite eye was treated in the same manner. To the vehicle group was administered the medium (0.5% polysorbate-containing saline) by a method similar to that for the test article. After 23 hr from the instillation, Mydrin P (registered trade mark) 0.5% ophthalmic solution (Santen Pharmaceutical Co., Ltd., general name: tropicamide/phenylephrine hydrochloride) was dropwisely added by one drop to the both eyes of a guinea pig to cause mydriasis. The guinea pig was anesthetized with Escain (registered trade mark) inhalation anesthetics (Pfizer Inc., general name: isoflurane), the cornea of the both eyes was tapped with a 30G injection needle, and the leaked aqueous humor (primary aqueous humor) was collected. One hour later (24 hr after instillation), the guinea pig was anesthetized again with isoflurane, and the secondary aqueous humor was collected in the same manner. The concentration of prostaglandins in the secondary aqueous humor obtained from each group (4 guinea pigs, 8 eyes) was measured by the LC/MS/MS system (Ultra high performance liquid chromatography: Nexera (registered trademark) manufactured by Shimadzu Corporation, mass spectrometer: […]), and the concentration ratio of each prostaglandin concentration relative to the total of all prostaglandin concentrations was calculated.

Consider `CC(C)Cc1ccc(-c2nc(O)nc(-c3cc(CNC(=O)C(C)(C)C)ccc3Cl)n2)cc1` [Example 1-51, N-{4-chloro-3-[4-(4-isobutylphenyl)-6-hydroxy-1,3,5-triazin-2-yl]benzyl}-2,2-dimethylpropionamide], for which the IC50 (usually the point on the concentration scale where inhibition reaches its midpoint) against human mPGES-1 was 1 nM. Moreover, in experiment [1], the “6-keto-PGF1α (%)” value was 21.7%, the “PGD2 (%)” value is recorded as 13.2%, the “PGE2 (%)” value stood at 50.7% and the “PGF2α (%)” value was found to be 14%. Moreover, the “TXB2 (%)” value in experiment [1] was 0.4%.

On to `Cc1ccc(-c2nc(O)nc(-c3cc(CNC(=O)C(C)(C)C(F)(F)F)ccc3Cl)n2)cc1F` [Example 1-81, N-{4-chloro-3-[4-(3-fluoro-4-methylphenyl)-6-hydroxy-1,3,5-triazin-2-yl]benzyl}-3,3,3-trifluoro-2,2-dimethylpropionamide], for which it took 0.6 nM to reach half-maximal inhibition on human mPGES-1 (IC50). In addition, in experiment [1], the “6-keto-PGF1α (%)” value was 15.7%, the “PGD2 (%)” value is reported as 13.2%, the “PGE2 (%)” value came to 60% and the “PGF2α (%)” value is 9.8%. Moreover, in experiment [1], the “TXB2 (%)” value is listed as 1.3%.

Compound `CC(C)c1ccc(-c2nc(O)nc(-c3cc(CNC(=O)C(C)(C)C(F)(F)F)ccc3Cl)n2)cc1` [Example 1-98, N-{4-chloro-3-[4-hydroxy-6-(4-isopropylphenyl)-1,3,5-triazin-2-yl]benzyl}-3,3,3-trifluoro-2,2-dimethylpropionamide] displayed a half-maximal inhibitory concentration (IC50) against human mPGES-1 of 0.9 nM. Further, in experiment [1], the “6-keto-PGF1α (%)” value is listed as 31.2%, the “PGD2 (%)” value is 16.3%, the “PGE2 (%)” value is listed as 38% and the “PGF2α (%)” value came out at 14.2%. Besides, in experiment [1], the “TXB2 (%)” value came out at 0.3%.

Compound `CC(C)COc1ccc(-c2nc(O)nc(-c3cc(CNC(=O)C(C)(C)C(F)(F)F)ccc3Cl)n2)cc1` [Example 1-109, N-{4-chloro-3-[4-hydroxy-6-(4-isobutoxyphenyl)-1,3,5-triazin-2-yl]benzyl}-3,3,3-trifluoro-2,2-dimethylpropionamide] gave an IC50 against human mPGES-1 of 2.5 nM. Besides, in experiment [1], the “6-keto-PGF1α (%)” value turned out to be 37.5%, the “PGD2 (%)” value was found to be 18.9%, the “PGE2 (%)” value turned out to be 29.5% and the “PGF2α (%)” value was 14.1%. In experiment [1], the “TXB2 (%)” value is 0.1%.

At human mPGES-1, `CCCOc1ccc(-c2nc(O)nc(-c3cc(CNC(=O)C(C)(C)C(F)(F)F)ccc3Cl)n2)cc1` [Example 1-122, N-{4-chloro-3-[4-hydroxy-6-(4-propoxyphenyl)-1,3,5-triazin-2-yl]benzyl}-3,3,3-trifluoro-2,2-dimethylpropionamide] had an IC50 of 1.3 nM. Moreover, in experiment [1], the “6-keto-PGF1α (%)” value was 27.7%, the “PGD2 (%)” value worked out at 23%, the “PGE2 (%)” value is reported as 37.3% and the “PGF2α (%)” value is listed as 11.7%. Also, in experiment [1], the “TXB2 (%)” value worked out at 0.2%.

Compound `CC1(COc2ccc(-c3nc(O)nc(-c4cc(CNC(=O)C(C)(C)C(F)(F)F)ccc4Cl)n3)cc2)CC1` [Example 1-128, N-(4-chloro-3-{4-hydroxy-6-[4-(1-methylcyclopropylmethoxy)phenyl]-1,3,5-triazin-2-yl}benzyl)-3,3,3-trifluoro-2,2-dimethylpropionamide] had an IC50 on human mPGES-1 of 1.3 nM. Also, in experiment [1], the “6-keto-PGF1α (%)” value was 29.7%, the “PGD2 (%)” value is reported as 19.3%, the “PGE2 (%)” value was 36.2% and the “PGF2α (%)” value came out at 13.9%. For the same compound, the “TXB2 (%)” value in experiment [1] is 0.8%.

Compound `Cc1ccc(-c2nc(O)nc(-c3cc(CNC(=O)C(C)(C)C(F)(F)F)ccc3Cl)n2)cc1Cl` [Example 1-129, N-{4-chloro-3-[4-(3-chloro-4-methylphenyl)-6-hydroxy-1,3,5-triazin-2-yl]benzyl}-3,3,3-trifluoro-2,2-dimethylpropionamide] came in with an IC50 on human mPGES-1 of 0.6 nM. In experiment [1], the “6-keto-PGF1α (%)” value is listed as 18.1%, the “PGD2 (%)” value worked out at 9.2%, the “PGE2 (%)” value is given as 62.5% and the “PGF2α (%)” value amounted to 10.2%. Besides, in experiment [1], the “TXB2 (%)” value is listed as 0%.

On to `CC(C)c1cc(-c2nc(O)nc(-c3cc(CNC(=O)C(C)(C)C(F)(F)F)ccc3Cl)n2)ccc1C(F)(F)F` [Example 1-130, N-{4-chloro-3-[4-hydroxy-6-(3-isopropyl-4-trifluoromethylphenyl)-1,3,5-triazin-2-yl]benzyl}-3,3,3-trifluoro-2,2-dimethylpropionamide], for which the IC50 at human mPGES-1 was determined as 9 nM. In experiment [1], the “6-keto-PGF1α (%)” value was determined as 11.2%, the “PGD2 (%)” value is listed as 6.2%, the “PGE2 (%)” value was 73.6% and the “PGF2α (%)” value came to 8%. The “TXB2 (%)” value in experiment [1] came out at 1%.

`CCCCOc1ccc(-c2nc(O)nc(-c3cc(CNC(=O)C(C)(C)C(F)(F)F)ccc3Cl)n2)cc1` [Example 1-131, N-{3-[4-(4-butoxyphenyl)-6-hydroxy-1,3,5-triazin-2-yl]-4-chlorobenzyl}-3,3,3-trifluoro-2,2-dimethylpropionamide] showed an IC50 against human mPGES-1 of 0.9 nM. Also, in experiment [1], the “6-keto-PGF1α (%)” value is 27.9%, the “PGD2 (%)” value was determined as 18.8%, the “PGE2 (%)” value is 42.9% and the “PGF2α (%)” value amounted to 9.8%. In addition, the “TXB2 (%)” value in experiment [1] is recorded as 0.6%.

The compound `CC(C)(C(=O)NCc1ccc(Cl)c(-c2nc(O)nc(-c3ccc(F)c(C4CC4)c3)n2)c1)C(F)(F)F` [Example 1-135, N-{4-chloro-3-[4-(3-cyclopropyl-4-fluorophenyl)-6-hydroxy-1,3,5-triazin-2-yl]benzyl}-3,3,3-trifluoro-2,2-dimethylpropionamide] showed an IC50 against human mPGES-1 of 0.5 nM. Also, in experiment [1], the “6-keto-PGF1α (%)” value turned out to be 19.4%, the “PGD2 (%)” value was determined as 10.9%, the “PGE2 (%)” value is 56.1% and the “PGF2α (%)” value is recorded as 12.7%. For the same compound, the “TXB2 (%)” value in experiment [1] is 0.9%.

As for `CO[C@](C)(C(=O)NCc1ccc(Cl)c(-c2nc(O)nc(-c3ccc(Cl)c(C)c3)n2)c1)C(F)(F)F` [Example 1-136, (R)—N-{4-chloro-3-[4-(4-chloro-3-methylphenyl)-6-hydroxy-1,3,5-triazin-2-yl]benzyl}-3,3,3-trifluoro-2-methoxy-2-methylpropionamide], it took 0.5 nM to reach half-maximal inhibition at human mPGES-1 (IC50). In experiment [1], the “6-keto-PGF1α (%)” value is 17.3%, the “PGD2 (%)” value came to 7.4%, the “PGE2 (%)” value was 66.7% and the “PGF2α (%)” value is listed as 7.9%. The “TXB2 (%)” value in experiment [1] stood at 0.7%.

Regarding `CCCOc1ccc(-c2nc(O)nc(-c3cc(CNC(=O)[C@@](C)(OC)C(F)(F)F)ccc3Cl)n2)cc1` [Example 1-137, (R)—N-{4-chloro-3-[4-hydroxy-6-(4-propoxyphenyl)-1,3,5-triazin-2-yl]benzyl}-3,3,3-trifluoro-2-methoxy-2-methylpropionamide], it took 0.5 nM to reach half-maximal inhibition on human mPGES-1 (IC50). Besides, in experiment [1], the “6-keto-PGF1α (%)” value turned out to be 24.8%, the “PGD2 (%)” value is 14.1%, the “PGE2 (%)” value was 49.5% and the “PGF2α (%)” value came out at 11.3%. The “TXB2 (%)” value in experiment [1] is 0.3%.

In the case of `Cc1ccc(-c2nc(O)nc(-c3cc(CNC(=O)C(C)(C)C(F)(F)F)ccc3Cl)n2)cc1C` [Example 1-150, N-{4-chloro-3-[4-(3,4-dimethylphenyl)-6-hydroxy-1,3,5-triazin-2-yl]benzyl}-3,3,3-trifluoro-2,2-dimethylpropionamide], half-maximal inhibition on human mPGES-1 (IC50) was put at 0.4 nM. In experiment [1], the “6-keto-PGF1α (%)” value came out at 14%, the “PGD2 (%)” value stood at 8%, the “PGE2 (%)” value was 69% and the “PGF2α (%)” value is reported as 8.9%. In experiment [1], the “TXB2 (%)” value turned out to be 0.2%.

Consider `CCCc1cccc(-c2nc(O)nc(-c3cc(CNC(=O)C(C)(C)C(F)(F)F)c(C)cc3Cl)n2)c1` [Example 3-16], for which the IC50 on human mPGES-1 turned out to be 2.1 nM. This counts as single-digit nanomolar.

In turn, `Cc1cc(Cl)c(-c2nc(O)nc(-c3ccc(OCC4CC4)cc3)n2)cc1CNC(=O)C(C)(C)C(F)(F)F` [Example 3-17] had an IC50 on human mPGES-1 of 0.8 nM. This IC50 is about 2.6-fold lower than that of the compound before.

At human mPGES-1, `Cc1c(CNC(=O)C(C)(C)C(F)(F)F)ccc(Cl)c1-c1nc(O)nc(-c2ccc(OCC(C)C)cc2)n1` [Example 3-18] had an IC50 of 1.2 nM.

`Cc1cc(Cl)c(-c2nc(O)nc(-c3ccc(OCC4CC4)cc3)n2)cc1C(=O)O` [Example 3-19]: at human mPGES-1, the IC50 was 24600 nM. Against the preceding compound, the IC50 is about 20000-fold higher.

`Cc1cc(Cl)c(-c2nc(O)nc(-c3ccc(OCC4CC4)cc3)n2)cc1C(N)=O` [Example 3-20]: on human mPGES-1, it took 1100 nM to reach half-maximal inhibition (IC50).

Compound `CNC(=O)c1cc(-c2nc(O)nc(-c3ccc(OCC4CC4)cc3)n2)c(Cl)cc1C` [Example 3-21] gave an IC50 at human mPGES-1 of 611 nM.

Compound `Cc1cc(Cl)c(-c2nc(O)nc(-c3ccc(OCC4CC4)cc3)n2)cc1C(=O)N(C)C` [Example 3-22] yielded an IC50 on human mPGES-1 of 6900 nM.

`CCCCNC(=O)c1cc(-c2nc(O)nc(-c3ccc(OCC4CC4)cc3)n2)c(Cl)cc1C` [Example 3-23] showed an IC50 at human mPGES-1 of 41 nM.
